Measured values reported in BindingDB's records for doi:10.3109/14756366.2010.548329 (Sun Yat-sen University, 2011).

Columns and labels:
Acetylcholinesterase = Acetylcholinesterase (Electrophorus electricus, UniProt O42275); test: Enzyme Inhibition Assay; settings: pH 8; 37 °C
Protocol: (§1) Enzyme solutions were prepared to give 2.0 units/mL in 2 mL aliquots. The assay medium contained phosphate buffer, pH 8.0 (1 mL), 50 μL of 0.01 M DTNB, 10 μL of enzyme, and 50 μL of 0.01 M substrate (ATC). The substrate was added to the assay medium containing enzyme, buffer, and DTNB with inhibitor after 15 min of incubation time. […] In vitro BuChE assay use the similar method described above.

Cholinesterase = Cholinesterase (Equus caballus, UniProt P81908); test: Enzyme Inhibition Assay; settings: pH 8; 37 °C
Protocol: as §1

Sequence of Cholinesterase (P81908 whole entry): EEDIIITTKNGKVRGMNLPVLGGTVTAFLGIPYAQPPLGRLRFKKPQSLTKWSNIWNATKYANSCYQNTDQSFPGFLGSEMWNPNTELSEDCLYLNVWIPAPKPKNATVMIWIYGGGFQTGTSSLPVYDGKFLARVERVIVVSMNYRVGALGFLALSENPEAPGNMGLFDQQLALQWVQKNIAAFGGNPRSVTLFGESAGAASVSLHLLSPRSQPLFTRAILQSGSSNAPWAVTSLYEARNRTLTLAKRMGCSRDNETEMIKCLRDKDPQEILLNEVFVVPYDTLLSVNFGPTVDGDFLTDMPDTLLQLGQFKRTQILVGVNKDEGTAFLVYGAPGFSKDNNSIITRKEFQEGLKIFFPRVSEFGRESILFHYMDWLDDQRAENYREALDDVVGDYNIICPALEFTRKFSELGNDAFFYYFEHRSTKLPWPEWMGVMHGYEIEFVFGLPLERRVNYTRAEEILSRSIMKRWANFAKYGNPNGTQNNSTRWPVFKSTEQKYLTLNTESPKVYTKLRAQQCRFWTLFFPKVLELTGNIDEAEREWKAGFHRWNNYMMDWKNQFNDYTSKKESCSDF
Sequence of Acetylcholinesterase (O42275 whole entry): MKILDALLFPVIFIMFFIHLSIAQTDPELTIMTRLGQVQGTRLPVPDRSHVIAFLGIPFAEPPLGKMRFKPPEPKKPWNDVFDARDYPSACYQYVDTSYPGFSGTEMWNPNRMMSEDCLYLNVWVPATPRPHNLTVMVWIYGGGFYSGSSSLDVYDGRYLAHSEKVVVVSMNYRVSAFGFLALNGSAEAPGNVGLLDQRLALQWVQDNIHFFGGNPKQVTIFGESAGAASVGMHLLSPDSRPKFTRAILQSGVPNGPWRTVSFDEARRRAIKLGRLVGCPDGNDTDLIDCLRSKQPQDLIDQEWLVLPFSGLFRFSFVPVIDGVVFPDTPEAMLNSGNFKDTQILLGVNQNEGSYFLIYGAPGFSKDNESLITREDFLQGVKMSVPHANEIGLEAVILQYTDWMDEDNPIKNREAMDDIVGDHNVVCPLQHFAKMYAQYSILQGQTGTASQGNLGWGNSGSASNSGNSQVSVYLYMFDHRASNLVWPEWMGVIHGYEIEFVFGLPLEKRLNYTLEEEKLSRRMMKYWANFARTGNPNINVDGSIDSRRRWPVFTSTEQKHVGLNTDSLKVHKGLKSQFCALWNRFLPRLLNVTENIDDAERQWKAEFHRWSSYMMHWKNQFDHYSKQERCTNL

Row | SMILES | IC50 (Acetylcholinesterase) [µM] | IC50 (Cholinesterase) [µM]
1 | COc1cc(CNCCCNCc2cc(OC)c3c(c2)OCO3)cc2c1OCO2 [N1,N3-bis((7-methoxybenzo[d][1,3]dioxol-5-yl)methyl)propane-1,3-diamine (5a)] | > 125 | 52.3
2 | COc1cc(CNCCCCNCc2cc(OC)c3c(c2)OCO3)cc2c1OCO2 [N1,N4-bis((7-methoxybenzo[d][1,3]dioxol-5-yl)methyl)butane-1,4-diamine (5b)] | 120 | 12.1
3 | COc1cc(CNCCCCCCCCCNCc2cc(OC)c3c(c2)OCO3)cc2c1OCO2 [N1,N9-bis((7-methoxybenzo[d][1,3]dioxol-5-yl)methyl)nonane-1,9-diamine (5g)] | 2.76 | 5.14
4 | COc1cc(CNCCCCCNCc2cc(OC)c3c(c2)OCO3)cc2c1OCO2 [N1,N5-bis((7-methoxybenzo[d][1,3]dioxol-5-yl)methyl)pentane-1,5-diamine (5c)] | 13.2 | 3.35
5 | COc1cc(CNCCCCCCCNCc2cc(OC)c3c(c2)OCO3)cc2c1OCO2 [N1,N7-bis((7-methoxybenzo[d][1,3]dioxol-5-yl)methyl)heptane-1,7-diamine (5e)] | 4.24 | 3.02
6 | COc1cc(CNCCCCCCCCNCc2cc(OC)c3c(c2)OCO3)cc2c1OCO2 [N1, N8-bis((7-methoxybenzo[d][1,3]dioxol-5-yl)methyl)octane-1,8-diamine (5f)] | 2.79 | 3.11
7 | COc1cc(CNCCCCCCNCc2cc(OC)c3c(c2)OCO3)cc2c1OCO2 [N1,N6-bis((7-methoxybenzo[d][1,3]dioxol-5-yl)methyl)hexane-1,6-diamine (5d)] | 9.78 | 2.07
